Square brackets hold non-standard residues; d marks the D form. Peptide text beside a SMILES is read from it.
Tested on: CD4+ splenocytes from Vα4/Vβ8.2 TCR transgenic mice
Format: cell-based, mouse
Settings: 72 h
Protocol: The in vitro effect of varying concentration of the CD 28 peptide mimetics on CD4+ lymph node cells and spleen cells from transgenic mice bearing the Vα 4 Vβ8.2 TCR specific for MBP Ac 1-11 was determined.
CD4+ T cells were purified from pooled peripheral lymph nodes (inguinal, axillary, brachial, cervical, popliteal), and mesenteric lymph nodes and spleen of 6–8 wk old Vα4/Vβ8.2 TCR transgenic mice by positive selection. Single cell suspensions were prepared by lympholyte M gradient, washed, counted and incubated with magnetic bead conjugated anti-mouse CD4 (L3T4) (Miltenyi Biotech Corporation) followed by positive selection using magnetic selection columns. Purity of the CD4^+ cells was greater than 90% as assessed by staining with FITC labeled anti-mouseVβ8.2 mAb (Pharmingen). During the selection process, T cells maintain a naïve phenotype with no evidence for T cell activation as measured by proliferation in culture. Purified CD4+ T-cells (5×10^4 cells/well) were cultured together with wild type splenocytes from B10.PL mice as APC's (10^5 cells/well) in RPMI 1640 containing 10% FCS, 25 mM HEPES, 2 mM L-glutamine, 50 U/ml penicillin, 50 μg/ml streptomycin, and 5×10–5 M 2-ME in round-bottom 96-well plates and MBP (40 μg/ml) or MBP NAc1-11 (10 μg/ml) or media only in the presence or absence of synthetic CD28 peptide analogues at different concentrations in triplicate wells for 72 h, including a final 18-h pulse with [^3H] thymidine. Cultures were harvested onto glass-fiber mats using a Skatron harvester (Skatron, Sterling, Va.) and were counted by liquid scintillation on LKB Betaplate (LKB, Rockville, Md.). The means of the triplicate were determined and the results are expressed as delta cpm (mean counts per minute of cultures with Ag-mean counts per minute of cultures with medium alone)±SD.

For CC[C@@H](C)[C@@H](NC(C)=O)C(=O)N[C@@H](C(=O)NCC(=O)N[C@H](CC(N)=O)C(=O)N[C@H](CO)C(=O)N[C@H](CCCNC(=N)N)C(=O)N[C@H](CCC(=O)O)C(=O)N[C@H](CC(N)=O)C(=O)N[C@H](CC(=O)O)C(=O)N[C@H](CC(C)C)C(=O)N[C@H](Cc1ccc(O)cc1)C(=O)N1CCC[C@@H]1C(=O)N1CCC[C@@H]1C(=O)N1CCC[C@@H]1C(=O)N[C@H](Cc1ccc(O)cc1)C(=O)N[C@H](CCSC)C(=O)N[C@H](Cc1ccccc1)C(=O)N[C@H](CCC(=O)O)C(=O)N[C@@H](C(=O)N[C@H](CCCCN)C(N)=O)[C@H](C)CC)[C@H](C)O [RI CD28] (Ac-[dI][dT]G[dN][dS][dR][dE][dN][dD][dL][dY][dP][dP][dP][dY][dM][dF][dE][dI][dK]-NH2), the “maximum inhibition of proliferative response” value was 42%.

From US7220822B2, “CD28 mimetics for blocking T cell mediated immune reactions” (The Ohio State University, priority 2000, dated 2007)
